Measured values from article PMC12067093, “Discovery and optimisation of a covalent ligand for TRIM25 and its application to targeted protein ubiquitination” (Chemical Science, 2025).

What was measured:
[1] = molecular target: T1, TRIM25 (peptide FTYC^498SQVLGLHC^506YK) (Homo sapiens, UniProt Q14258); assay: IA-DTB competitive chemoproteomics in live THP-1 cells; type: cell-based, 9606; conditions: 4 h at 37 °C, compound tested at 50 μM and 10 μM, significant if FC ≤ 0.25, p-value ≤ 0.01
T1 construct: endogenous in cells; host or cells: THP-1
T1 sequence (Q14258 whole entry): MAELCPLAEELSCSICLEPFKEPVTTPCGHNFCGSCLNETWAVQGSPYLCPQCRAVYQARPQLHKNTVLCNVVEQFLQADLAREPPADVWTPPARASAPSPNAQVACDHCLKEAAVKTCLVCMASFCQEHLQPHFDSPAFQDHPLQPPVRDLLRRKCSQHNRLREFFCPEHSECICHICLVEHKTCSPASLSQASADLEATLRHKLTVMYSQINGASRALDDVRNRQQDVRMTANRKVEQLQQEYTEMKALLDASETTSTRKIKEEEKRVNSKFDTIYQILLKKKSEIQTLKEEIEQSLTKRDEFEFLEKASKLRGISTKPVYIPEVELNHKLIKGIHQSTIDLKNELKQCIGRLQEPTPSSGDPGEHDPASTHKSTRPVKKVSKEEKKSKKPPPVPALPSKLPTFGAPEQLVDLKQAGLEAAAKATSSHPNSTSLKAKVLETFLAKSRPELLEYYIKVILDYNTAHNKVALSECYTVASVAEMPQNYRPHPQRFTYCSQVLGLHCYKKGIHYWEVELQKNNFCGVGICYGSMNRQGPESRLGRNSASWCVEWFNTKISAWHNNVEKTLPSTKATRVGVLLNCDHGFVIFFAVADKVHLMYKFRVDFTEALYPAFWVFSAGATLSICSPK

E1 (His6-UBA1) = molecular target: T2, E1 (His6-UBA1) (Mus musculus, UniProt Q02053); assay: E1~Ub loading assay; type: biochemical; conditions: E1 2 μM pre-treated with compound 100 μM for 30 min at RT; reducing and non-reducing conditions
T2 construct: made in house
T2 sequence (Q02053 1-1058): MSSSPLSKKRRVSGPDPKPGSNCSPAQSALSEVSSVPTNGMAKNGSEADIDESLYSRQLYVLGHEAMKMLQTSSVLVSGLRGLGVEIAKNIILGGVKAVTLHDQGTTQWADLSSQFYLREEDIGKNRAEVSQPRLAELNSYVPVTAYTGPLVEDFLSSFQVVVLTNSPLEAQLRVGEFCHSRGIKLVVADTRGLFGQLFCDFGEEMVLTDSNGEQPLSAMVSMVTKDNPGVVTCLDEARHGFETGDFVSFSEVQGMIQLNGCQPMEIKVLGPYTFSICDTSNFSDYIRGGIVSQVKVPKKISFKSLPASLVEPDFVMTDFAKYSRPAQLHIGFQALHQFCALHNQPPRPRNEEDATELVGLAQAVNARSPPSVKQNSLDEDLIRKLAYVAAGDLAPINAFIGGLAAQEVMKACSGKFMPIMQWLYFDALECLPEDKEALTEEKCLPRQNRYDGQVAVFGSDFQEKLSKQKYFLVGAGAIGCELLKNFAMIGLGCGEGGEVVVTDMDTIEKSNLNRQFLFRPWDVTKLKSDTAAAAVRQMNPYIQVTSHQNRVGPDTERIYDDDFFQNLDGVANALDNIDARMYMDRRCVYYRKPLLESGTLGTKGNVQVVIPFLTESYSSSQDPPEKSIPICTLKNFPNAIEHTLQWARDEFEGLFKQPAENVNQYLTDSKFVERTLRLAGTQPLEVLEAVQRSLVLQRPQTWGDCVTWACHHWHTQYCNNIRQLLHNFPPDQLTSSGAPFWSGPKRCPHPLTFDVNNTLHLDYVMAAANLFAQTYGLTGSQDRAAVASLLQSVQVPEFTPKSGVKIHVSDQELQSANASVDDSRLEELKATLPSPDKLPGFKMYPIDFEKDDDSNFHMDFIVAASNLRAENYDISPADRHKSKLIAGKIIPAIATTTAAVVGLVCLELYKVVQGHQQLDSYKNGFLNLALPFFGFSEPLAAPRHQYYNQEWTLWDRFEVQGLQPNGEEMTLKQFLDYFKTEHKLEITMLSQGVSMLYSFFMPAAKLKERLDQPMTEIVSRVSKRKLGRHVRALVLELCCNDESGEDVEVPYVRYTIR
Method: 2 Supplementary Figure 6 Further biochemical characterisation of purified
4 A) Schematic of auto-ubiquitination assay, with pre-labelled full-length TRIM25. Created in
5 BioRender. McPhie, K. (2025) https://BioRender.com/q86g447; B) Auto-ubiquitination time
7 µM) was incubated with compounds (50 µM) or DMSO (1%) for 16 h at 4 °C, before addition
8 of E1 (0.2 µM), UBCH5B (2 µM), Ub (50 µM), UbATTO (1 µM). The assay was initiated by the
9 addition of ATP, and performed for 60 min at 30 °C. Time point 0 was taken before the addition
10 of ATP. Samples were analysed by SDS-PAGE, with Coomassie staining and scanning at 700
11 nm wavelength (for ATTO emission).
12 of His10-TRIM25 (which has not been ubiquitinated) where % His10-TRIM25 (relative to time =
13 0 min) is plotted vs reaction time. Data are presented as n = 1; D) E1~Ub loading assay with
E1 (2 µM) was incubated with
15 compounds (100 µM) or DMSO (1%) for 30 min at RT, before addition of UBCH5B (2 µM) and
16 Ub (10 µM). The assay was initiated by the addition of ATP (1 mM), and performed for 5 min
17 at 30 °C. After 5 min, samples were treated with either loading dye, or loading dye with DTT,
18 and analysed by SDS-PAGE, with Coomassie staining; E) Cellular target identification for 11
19 (50 µM, left, and 10 µM, right, 4 h incubation at 37 °C in live THP-1 cells) using an […]

Row | Structure (SMILES) | TRIM25 engagement in cells [1] | E1~Ub loading (E1 (His6-UBA1))
1 | Cc1cc(C(=O)N2CCCN(C(=O)CCl)CC2)ccc1-c1ccccc1 [Compound 10] | engaged TRIM25 in cells at the PRYSPRY domain at 50 μM | not inhibited
2 | CC1Cc2ccccc2N1C(=O)C1CCCN(C(=O)CCl)C1 (stereo not shown) [Compound 11] | not observed to engage TRIM25 | not inhibited
